Assay results taken from US20170251655A2, “COMPOSITIONS AND METHODS FOR CAPTURING, KILLING OR REPELLING BED BUGS” (OLFACTOR LABORATORIES, INC., priority 2014, published 2017).
Where a name gives a salt, the structure may show the parent alone.

Tests used:
[1] = system: bed bug (Cimex lectularius); experiment: Bed bug repellency assay (filter paper harborage, petri dish); format: in vivo; conditions: for % Repellency / Repellency Category: individual compounds; for % Repellency: 10 microliters compound + 90 microliters isopropyl alcohol on filter paper tent, 10 bed bugs, 5 minutes, vs control; for Repellency Category: category from % repellency; for Ind % Rep (percent repellency of the individual compound): values obtained in Example 1 for the individual compound of a blend
Experimental: Compounds and blends of the present invention were assayed for their ability to modify bed bug (Cimex lectularius) behavior using a bed bug repellency assay. This assay takes advantage of the bed bug's natural instinct to seek harborage. Two petri dishes were obtained and the inner areas of each were sanded down (leaving the perimeter smooth.) Talc was applied on the perimeter and on the inside walls of the petri dishes with a small paint brush to prevent bed bugs from escaping. A cut off top portion of a plastic cup was placed upside down in the center of one petri dish to create a holding arena for the bed bugs. A large plastic secondary container was gathered and a paper towel was laid down inside the bottom. The petri dish was then placed inside and ten bed bugs were placed inside the cut off portion of the cup.
Next, two pieces of filter paper were cut down the middle to yield 4 equally sized halves. Three pieces were placed inside a glass dish […] and the remaining piece was placed in a separate dish. All four pieces were folded down the middle to create a “tent” or “harborage” when laid such that the folded crease faced up. 100 microliters of isopropyl alcohol was pipetted into three pieces of filter paper (all housed in the first glass dish.) In a separate 4 ml vial, 90 microliters of isopropyl alcohol was combined and vortexed with 10 microliters of the compound or compound combination being tested. 100 microliters of this solution [comprising a total of […] of compound(s)] was pipetted onto the filter paper in the separate dish. All filter papers were then allowed to dry. Once dry, experiments were conducted first with two filter paper halves comprising only the isopropyl alcohol (control experiment) and then with the remaining filter paper halves [one with only isopropyl alcohol and one comprising the test compound(s).] Filter paper halves were placed on opposing sides of experimental petri dishes and bed bugs were allowed to move freely within the dishes by removal of the plastic cup top. Movement was allowed to continue for 5 minutes before the number bed bugs beneath each filter paper tent was recorded.

[2] = system: bed bug (Cimex lectularius); experiment: Bed bug threshold assay (mouse bait, treated filter paper on acrylic rod bridges); format: in vivo; conditions: 90 μl isopropyl alcohol + 10 μl testing compound on filter paper; bed bugs crossing treated vs control; mouse as bait; 10 minutes
Experimental: Compounds and blends of the present invention were assayed for their ability to modify bed bug (Cimex lectularius) behavior using a bed bug threshold assay. Three interceptors were laid side by side and acrylic rods were stuck on to the sides with putty so that they went from interceptor to interceptor forming bridges. Paper towels sections of 6 inches by 2 inches were placed so that they hung off of the ends of the acrylic rods to form harborage for bed bugs. Next, 125 mm pieces of Whatman Filter paper treated either with the compound of interest (90 μl isopropyl alcohol+10 μl testing compound) or with control solution of 100 μl isopropyl alcohol were stuck to the top of the acrylic rods with the compound impregnated filter on one rod and control impregnated filter on the other. In the middle interceptor a mouse was placed as bait for the bed bugs. In either outside interceptors 10 bed bugs each were placed in holding dishes, allowed to equilibrate for 10 minutes then released on the harborage. Video footage at 1 second time intervals was obtained for 10 minutes then analyzed for bed bug movements. Repellency of any given compound or blend was calculated by counting how many bed bugs traversed the acrylic rods across either the treated or the control Whatman filter paper. Percent repellency was determined by comparing the number of bed bugs which crossed the treated Whatman filter paper to the number of bed bugs which crossed the control Whatman filter paper.

bed bugs [3] = conditions: study performed in Africa; cited from earlier work
C. lectularius = conditions: population of C. lectularius isolated in Arkansas; cited from earlier work
bed bugs [4] = experiment: Bed bug luring assay (baited cup, overnight); format: in vivo; conditions: for Attractant Category: category from attractant activity value; for Att Act (attractant activity value): percentage of 10 bed bugs in baited cup, cottonball with 100 microliters compound or combination solution, overnight, dark
Experimental: Assays were conducted to measure the ability of compounds and compound combinations to attract bed bugs. A testing arena habitat comprising a small plastic container was placed inside of a larger, secondary container. The top half inch was removed from two bathroom sized plastic cups and each cup was placed on opposite sides of the testing arena habitat, one inch away from the wall. Each outer part of the cup was textured using sandpaper, as bed bugs cannot climb smooth surfaces. A paper towel was used to line the floor of the testing arena habitat. The top, removed portion of one of the cups was placed mouth side down in the center of the arena. In one of the cups, a cottonball was placed and treated with 100 microliters of compound or compound combination solution [comprising a total of […] of compound(s).] Ten bed bugs were placed within the center cut off cup top and the testing arena habitat was covered and placed within a dark, climate controlled room overnight.
The next day, the number of bed bugs that crawled into the baited cup were recorded and the attractant activity value was calculated. As used herein, the attractant activity value represents the percentage of bugs that crawled into the baited cup as compared to the total number of bed bugs. In the Table, “Att Act” refers to attract activity value.

[5] = system: bed bug (Cimex lectularius); experiment: Bed bug repellency assay (filter paper harborage, petri dish); format: in vivo; conditions: statement in the description, test not named

Row | Compound | % Repellency [1] [%] | Repellency Category [1] | % Repellency [2] [%] | Attractant Category (bed bugs [4]) | Att Act (attractant activity value) (bed bugs [4]) [%] | also measured
1 | methoxy cinnamic aldehyde [BBC046] | 23 | Mild (Compounds with a percent repellency value of 20-40% were categorized as mild repellents) | 92 | – | – | –
2 | Clc1ccc(C(c2ccc(Cl)cc2)C(Cl)(Cl)Cl)cc1 [DDT, dichlorodiphenyltrichloroethane] | – | – | – | – | – | bed bug activity level after treatment (bed bugs [3]): higher activity level; LD50 (C. lectularius): 100,000 ppm
3 | CSC(C)=O [BBC060, methanethiol acetate] | – | – | – | Moderate (Compounds or blends with an attractant activity value of 20-40% were categorized as moderate attractants) | 20 | –
4 | O=C1CCCC1 [BBC069, cyclopentanone] | – | – | – | Strong (Compounds or blends with an attractant activity value of 40-60% were categorized as strong attractants) | 50 | –
5 | COc1cnccn1 [BBC047, 2-methoxypyrazine] | – | – | – | Moderate (Compounds or blends with an attractant activity value of 20-40% were categorized as moderate attractants) | 30 | –
6 | CC1=C2CCC(C)CC2OC1=O (stereo not drawn) [BBC054, menthalactone] | – | – | 95 | – | – | –
7 | N#C/C=C/c1ccccc1 [BBC029, cinnamyl nitrile] | 56 | Moderate (Compounds with a percent repellency value of 40-60% were categorized as moderate repellents) | 92 | – | – | Ind % Rep (percent repellency of the individual compound) [1]: 56%
8 | CCCCCCOC=O [BBC035, hexyl formate] | – | – | – | Moderate (Compounds or blends with an attractant activity value of 20-40% were categorized as moderate attractants) | 30 | –
9 | COC(/C=C/c1ccccc1)OC [BBC013, cinnamic aldehyde dimethyl acetal] | 90 | Very Strong (compounds with a percent repellency value of 80-100% were categorized as very strong repellents) | – | – | – | –
10 | CCCC(C)=O [BBC065, 2-pentanone] | – | – | – | Moderate (Compounds or blends with an attractant activity value of 20-40% were categorized as moderate attractants) | 30 | –
11 | CCCC(=O)CCC [BBC057, heptanone-4] | – | – | 38 | – | – | –
12 | COc1nccnc1C [BBC067, 2-methoxy-3-methylpyrazine] | – | – | – | Mild (Compounds or blends with an attractant activity value of 10-20% were categorized as mild attractants) | 10 | –
13 | 2-methoxy-3(5or6) isopropylpyrazine [BBC006] | 100 | Very Strong (compounds with a percent repellency value of 80-100% were categorized as very strong repellents) | 100 | – | – | –
14 | C=CCc1ccc(O)c(OC)c1 [BBC002, eugenol] | – | – | – | – | – | bed bug repellency, in words [5]: repel bed bugs
15 | C/C=C/C(=O)OC [BBC039, methyl crotonate] | – | – | – | Moderate (Compounds or blends with an attractant activity value of 20-40% were categorized as moderate attractants) | 20 | –
16 | O=CCCc1ccccc1 [BBC005, phenyl propyl aldehyde] | 100 | Very Strong (compounds with a percent repellency value of 80-100% were categorized as very strong repellents) | 74 | – | – | –
17 | CC(=O)/C=C/C=C(C)C [BBC014, methyl heptadienone] | 87 | Very Strong (compounds with a percent repellency value of 80-100% were categorized as very strong repellents) | 64 | – | – | –
18 | C/C=C(\C)C=O [BBC062, trans-2-methyl-2-butenal] | – | – | – | – | – | Ind % Rep (percent repellency of the individual compound) [1]: 0%
19 | CCC(=O)OCCC(C)C [BBC051, isoamyl propionate] | – | – | – | Mild (Compounds or blends with an attractant activity value of 10-20% were categorized as mild attractants) | 10 | –
20 | COC(Cc1ccccc1)OC [BBC012, phenylacetaldehyde dimethyl acetate] | 100 | Very Strong (compounds with a percent repellency value of 80-100% were categorized as very strong repellents) | – | – | – | –
21 | COc1ccccc1O [BBC011, guaiacol] | – | – | – | – | – | bed bug repellency, in words [5]: repel bed bugs
22 | COC(=O)CCC(C)=O [BBC049, methyl levulinate] | – | – | – | Mild (Compounds or blends with an attractant activity value of 10-20% were categorized as mild attractants) | 10 | –
23 | CCCOC=O [BBC070, propyl formate] | – | – | – | Moderate (Compounds or blends with an attractant activity value of 20-40% were categorized as moderate attractants) | 30 | –
24 | CCCC1CCC(=O)O1 (stereo not drawn) [BBC021, gamma-heptalactone] | 71 | Strong (Compounds with a percent repellency value of 60-80% were categorized as strong repellents) | 91 | – | – | Ind % Rep (percent repellency of the individual compound) [1]: 71%
25 | ultrazur [BBC016] | 84 | Very Strong (compounds with a percent repellency value of 80-100% were categorized as very strong repellents) | 64 | – | – | –
